From ChEMBL document CHEMBL1201862, “PubChem BioAssay data set” (2004)
The source made the active and inactive calls.

Legend:
[1] = molecular target: Voltage-dependent T-type calcium channel subunit alpha-1H (Homo sapiens, UniProt O95180); format: functional;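 also: channel activity triggered by adding a high calcium stimulation buffer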
HEK293 = experiment: EBV LMP1 TES2 canonical NF-kB signalling blockers – cell-based, HEK293, luciferase, cherry-pick, dose response (AID 588343); format: functional; conditions: Homo sapiens
[2] = fluconazole-exposed Candida albicans growth modulators – fluorescence, retest, confirmation (AID 2467); format: functional, cell-based
[3] = NIH-3T3 fibroblast cytotoxicity, dose response, cytotoxicity control, cell-based, fluorescence, Alamar Blue, secondary assay (AID 2327); format: functional;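 also: NIH-3T3 mouse fibroblasts cultured with fluconazole at 8 µg/mL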
[4] = molecular target: T1, Replicative DNA helicase DnaB (Mycobacterium tuberculosis, UniProt P9WMR3); experiment: DnaB intein splicing inhibitors, dose response, biochemical, cell-free fluorescence (AID 449749); format: functional
T1 sequence (P9WMR3 whole entry): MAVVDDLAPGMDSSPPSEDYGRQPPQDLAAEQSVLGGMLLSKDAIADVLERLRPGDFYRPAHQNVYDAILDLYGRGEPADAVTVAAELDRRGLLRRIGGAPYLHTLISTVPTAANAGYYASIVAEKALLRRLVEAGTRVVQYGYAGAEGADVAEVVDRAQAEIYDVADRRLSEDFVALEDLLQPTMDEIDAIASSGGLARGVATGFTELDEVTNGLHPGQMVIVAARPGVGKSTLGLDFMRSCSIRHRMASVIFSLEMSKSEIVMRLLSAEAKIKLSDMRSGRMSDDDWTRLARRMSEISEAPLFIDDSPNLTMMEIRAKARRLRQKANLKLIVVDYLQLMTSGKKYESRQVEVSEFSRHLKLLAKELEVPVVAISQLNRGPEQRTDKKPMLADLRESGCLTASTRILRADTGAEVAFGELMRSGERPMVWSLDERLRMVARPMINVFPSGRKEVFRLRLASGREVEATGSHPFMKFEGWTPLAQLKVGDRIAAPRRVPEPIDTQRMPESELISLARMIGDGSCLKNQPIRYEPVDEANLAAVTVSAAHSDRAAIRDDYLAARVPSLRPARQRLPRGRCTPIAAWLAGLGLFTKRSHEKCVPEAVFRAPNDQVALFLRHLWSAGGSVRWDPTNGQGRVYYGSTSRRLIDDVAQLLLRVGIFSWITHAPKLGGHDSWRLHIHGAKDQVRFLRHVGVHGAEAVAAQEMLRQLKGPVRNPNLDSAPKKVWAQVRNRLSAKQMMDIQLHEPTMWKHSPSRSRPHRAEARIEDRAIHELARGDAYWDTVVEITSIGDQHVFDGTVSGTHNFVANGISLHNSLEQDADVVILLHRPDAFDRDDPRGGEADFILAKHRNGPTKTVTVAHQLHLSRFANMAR

Prothrombin = Prothrombin (Homo sapiens, UniProt P00734); experiment: Thrombin 1536 HTS Dose Response Confirmation. [Related pubchem assays: 1046 (Thrombin 1536 HTS; hits were confirmed in this assay)]; format: functional
Protein RecA = molecular target: T2, Protein RecA (Mycobacterium tuberculosis, UniProt P9WHJ3); experiment: Fluorescence Cell-Free Homogeneous Dose Retest to Identify Inhibitors of RecA-Intein Splicing Activity. [Related pubchem assays (depositor defined):AID2097, AID2223, AID489010, AID492950]; format: functional
T2 sequence (P9WHJ3 whole entry): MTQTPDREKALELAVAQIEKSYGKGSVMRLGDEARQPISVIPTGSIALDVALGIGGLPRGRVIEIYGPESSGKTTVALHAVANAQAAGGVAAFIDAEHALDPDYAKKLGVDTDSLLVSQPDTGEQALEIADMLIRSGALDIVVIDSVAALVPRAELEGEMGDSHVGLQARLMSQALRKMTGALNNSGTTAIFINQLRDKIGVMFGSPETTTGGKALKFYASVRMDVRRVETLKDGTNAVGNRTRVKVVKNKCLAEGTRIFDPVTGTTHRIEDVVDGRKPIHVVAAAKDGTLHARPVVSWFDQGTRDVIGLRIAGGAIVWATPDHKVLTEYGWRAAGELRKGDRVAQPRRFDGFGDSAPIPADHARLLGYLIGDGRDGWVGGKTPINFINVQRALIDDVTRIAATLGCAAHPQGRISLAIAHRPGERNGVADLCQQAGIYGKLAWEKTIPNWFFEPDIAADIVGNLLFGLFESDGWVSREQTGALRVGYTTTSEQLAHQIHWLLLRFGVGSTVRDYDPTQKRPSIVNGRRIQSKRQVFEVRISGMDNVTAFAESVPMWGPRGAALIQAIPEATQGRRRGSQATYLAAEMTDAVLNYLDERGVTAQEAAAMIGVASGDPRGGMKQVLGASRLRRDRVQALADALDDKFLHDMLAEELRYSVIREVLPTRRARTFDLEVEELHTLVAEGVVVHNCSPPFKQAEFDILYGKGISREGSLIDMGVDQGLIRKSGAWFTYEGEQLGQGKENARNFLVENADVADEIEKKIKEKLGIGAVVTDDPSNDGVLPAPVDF

[5] = Luminescence Cell-Based Dose Retest to Confirm Inhibitors of Cancer Stem Cells. [Related pubchem assays (depositor defined):AID2717, AID2721]; format: functional; conditions: Homo sapiens
Phospholipase A2 = Phospholipase A2 (Homo sapiens, UniProt P04054); format: functional;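 also: confirmatory dose-response counterscreen on phospholipase A2, testing hits that came from an ultra-high-throughput screen for ATG4B inhibitors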
INS1 = experiment: INS-1E survival protection against cytokine death – cell-based, luminescence, retest, dose response (AID 449756); format: functional; conditions: Rattus norvegicus;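 also: cell death triggered by IL-1 beta plus TNF-alpha plus IFN-gamma mixture; protective hits raise ATP signal compared with cytokine alone wells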
Cysteine protease ATG4B = molecular target: T3, Cysteine protease ATG4B (Homo sapiens, UniProt Q9Y4P1); format: functional;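 also: Fluorescence-based dose-response confirmation assay measuring inhibition of ATG4B activity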
T3 sequence (Q9Y4P1 whole entry): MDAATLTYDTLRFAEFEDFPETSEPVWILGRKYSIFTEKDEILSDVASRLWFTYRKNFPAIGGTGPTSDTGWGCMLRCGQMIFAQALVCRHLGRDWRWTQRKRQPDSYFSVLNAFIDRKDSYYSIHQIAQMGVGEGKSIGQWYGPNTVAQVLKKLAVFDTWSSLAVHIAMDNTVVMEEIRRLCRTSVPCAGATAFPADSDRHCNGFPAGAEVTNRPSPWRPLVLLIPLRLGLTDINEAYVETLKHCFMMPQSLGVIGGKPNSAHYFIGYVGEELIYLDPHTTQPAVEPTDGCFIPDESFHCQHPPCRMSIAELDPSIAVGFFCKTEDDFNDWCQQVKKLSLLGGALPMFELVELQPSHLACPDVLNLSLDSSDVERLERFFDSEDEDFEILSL

[6] = NIH3T3 cell viability loss – ATP luminescence, mouse fibroblasts, counter-screen, dose response (AID 2010); format: functional, cell-based;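 also: cells exposed to compound for about 90 hours before reading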
Streptokinase A = molecular target: T4, Streptokinase A (Streptococcus pyogenes serotype M1, UniProt P10520); experiment: viability-normalized secreted streptokinase activity reduction – plasminogen activation absorbance, OD405, dose response (AID 1914); format: functional, Streptococcus pyogenes M1 GAS;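 also: secreted streptokinase activity via plasminogen activation per viability signal from cell pellet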
T4 sequence (P10520 whole entry): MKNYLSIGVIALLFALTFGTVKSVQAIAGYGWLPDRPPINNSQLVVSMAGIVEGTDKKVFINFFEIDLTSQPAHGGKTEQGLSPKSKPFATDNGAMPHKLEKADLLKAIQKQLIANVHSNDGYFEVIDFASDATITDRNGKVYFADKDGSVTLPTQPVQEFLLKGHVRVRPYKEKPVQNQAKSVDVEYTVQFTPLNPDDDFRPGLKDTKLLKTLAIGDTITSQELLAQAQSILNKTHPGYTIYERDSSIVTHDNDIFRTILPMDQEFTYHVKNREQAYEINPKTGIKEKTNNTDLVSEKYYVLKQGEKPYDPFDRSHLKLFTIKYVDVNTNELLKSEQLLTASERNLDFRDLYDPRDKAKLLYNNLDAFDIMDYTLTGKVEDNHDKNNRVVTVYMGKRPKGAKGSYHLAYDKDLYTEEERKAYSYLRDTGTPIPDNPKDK

Streptococcus = experiment: GAS UMAA2166 growth inhibition – luminescence, BacTiterGlo, counter-screen for streptokinase expression inhibitor project, dose response (AID 1915); format: functional, organism-based;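 also: potency for reduction of bacterial viability or growth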
[7] = tested on: Streptococcus sp. 'group A'; experiment: Streptococcus pyogenes SK(-)GAS viability under kanamycin – luminescence, BacTiterGlo, confirmation, counter-screen for streptokinase expression inhibitor project, dose response (AID 1900); format: functional, organism-based
[8] = Trypanosoma cruzi growth suppression in host cells – NIH3T3 host cells, beta-gal luminescence, confirmation (AID 2044); format: functional, cell-based;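 also: intracellular parasites grown in NIH/3T3 mouse fibroblasts as host cells; luminescent beta-galactosidase reporter signal from transgenic T. cruzi replicating inside host cells; inhibitors lower the luminescence signal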
Nonstructural protein 1 = Nonstructural protein 1 (Influenza A virus, UniProt Q194T2); format: functional, Influenza A virus (A/California/07/2009(H1N1))
[9] = viability of HCT116 lacking mutant beta-catenin – cell-based, human colon tumor, dose response (AID 1045); format: functional;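 also: HCT116 colon tumor cells with beta catenin knocked out; cells exposed to compound for 60 hours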
[10] = viability of PTEN-deleted HCT116 cells – cell-based, HCT116 PTEN knockout, dose response (AID 1047); format: functional;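 also: HCT116 colon tumor cells with PTEN knocked out; cells exposed to compound for 60 hours before readout; potency for loss of cell viability measured by luminescence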
[11] = molecular target: T5, Rac GTPase-activating protein 1 (Homo sapiens, UniProt Q9H0H5); experiment: blockers of MgcRacGAP-driven Rac1 GTP hydrolysis – biochemical, ADP Hunter fluorescence, primary and confirmatory, confirmation (AID 624330); format: functional
T5 sequence (Q9H0H5 whole entry): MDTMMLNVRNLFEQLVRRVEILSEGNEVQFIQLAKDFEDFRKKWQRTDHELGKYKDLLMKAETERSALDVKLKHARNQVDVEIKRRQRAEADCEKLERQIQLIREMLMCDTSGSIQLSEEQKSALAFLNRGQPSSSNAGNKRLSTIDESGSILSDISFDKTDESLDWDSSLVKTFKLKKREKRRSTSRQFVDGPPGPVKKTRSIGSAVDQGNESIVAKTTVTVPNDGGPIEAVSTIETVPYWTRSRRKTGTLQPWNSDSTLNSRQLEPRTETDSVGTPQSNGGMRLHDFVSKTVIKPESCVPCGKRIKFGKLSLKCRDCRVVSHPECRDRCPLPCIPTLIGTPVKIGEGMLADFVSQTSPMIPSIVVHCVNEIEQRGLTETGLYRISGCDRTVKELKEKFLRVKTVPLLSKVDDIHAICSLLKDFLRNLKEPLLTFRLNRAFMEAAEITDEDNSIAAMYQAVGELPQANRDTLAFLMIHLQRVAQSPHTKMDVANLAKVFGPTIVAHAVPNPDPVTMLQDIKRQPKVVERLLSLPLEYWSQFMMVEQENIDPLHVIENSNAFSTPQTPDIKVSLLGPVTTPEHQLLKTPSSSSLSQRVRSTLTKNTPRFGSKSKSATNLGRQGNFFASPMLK

[12] = viability loss in HeLa cells – cytotoxicity control for MgcRacGAP inhibitor project, dose response (AID 624300); format: functional

Voltage-dependent T-type calcium channel subunit alpha-1H, sequence (O95180 whole entry): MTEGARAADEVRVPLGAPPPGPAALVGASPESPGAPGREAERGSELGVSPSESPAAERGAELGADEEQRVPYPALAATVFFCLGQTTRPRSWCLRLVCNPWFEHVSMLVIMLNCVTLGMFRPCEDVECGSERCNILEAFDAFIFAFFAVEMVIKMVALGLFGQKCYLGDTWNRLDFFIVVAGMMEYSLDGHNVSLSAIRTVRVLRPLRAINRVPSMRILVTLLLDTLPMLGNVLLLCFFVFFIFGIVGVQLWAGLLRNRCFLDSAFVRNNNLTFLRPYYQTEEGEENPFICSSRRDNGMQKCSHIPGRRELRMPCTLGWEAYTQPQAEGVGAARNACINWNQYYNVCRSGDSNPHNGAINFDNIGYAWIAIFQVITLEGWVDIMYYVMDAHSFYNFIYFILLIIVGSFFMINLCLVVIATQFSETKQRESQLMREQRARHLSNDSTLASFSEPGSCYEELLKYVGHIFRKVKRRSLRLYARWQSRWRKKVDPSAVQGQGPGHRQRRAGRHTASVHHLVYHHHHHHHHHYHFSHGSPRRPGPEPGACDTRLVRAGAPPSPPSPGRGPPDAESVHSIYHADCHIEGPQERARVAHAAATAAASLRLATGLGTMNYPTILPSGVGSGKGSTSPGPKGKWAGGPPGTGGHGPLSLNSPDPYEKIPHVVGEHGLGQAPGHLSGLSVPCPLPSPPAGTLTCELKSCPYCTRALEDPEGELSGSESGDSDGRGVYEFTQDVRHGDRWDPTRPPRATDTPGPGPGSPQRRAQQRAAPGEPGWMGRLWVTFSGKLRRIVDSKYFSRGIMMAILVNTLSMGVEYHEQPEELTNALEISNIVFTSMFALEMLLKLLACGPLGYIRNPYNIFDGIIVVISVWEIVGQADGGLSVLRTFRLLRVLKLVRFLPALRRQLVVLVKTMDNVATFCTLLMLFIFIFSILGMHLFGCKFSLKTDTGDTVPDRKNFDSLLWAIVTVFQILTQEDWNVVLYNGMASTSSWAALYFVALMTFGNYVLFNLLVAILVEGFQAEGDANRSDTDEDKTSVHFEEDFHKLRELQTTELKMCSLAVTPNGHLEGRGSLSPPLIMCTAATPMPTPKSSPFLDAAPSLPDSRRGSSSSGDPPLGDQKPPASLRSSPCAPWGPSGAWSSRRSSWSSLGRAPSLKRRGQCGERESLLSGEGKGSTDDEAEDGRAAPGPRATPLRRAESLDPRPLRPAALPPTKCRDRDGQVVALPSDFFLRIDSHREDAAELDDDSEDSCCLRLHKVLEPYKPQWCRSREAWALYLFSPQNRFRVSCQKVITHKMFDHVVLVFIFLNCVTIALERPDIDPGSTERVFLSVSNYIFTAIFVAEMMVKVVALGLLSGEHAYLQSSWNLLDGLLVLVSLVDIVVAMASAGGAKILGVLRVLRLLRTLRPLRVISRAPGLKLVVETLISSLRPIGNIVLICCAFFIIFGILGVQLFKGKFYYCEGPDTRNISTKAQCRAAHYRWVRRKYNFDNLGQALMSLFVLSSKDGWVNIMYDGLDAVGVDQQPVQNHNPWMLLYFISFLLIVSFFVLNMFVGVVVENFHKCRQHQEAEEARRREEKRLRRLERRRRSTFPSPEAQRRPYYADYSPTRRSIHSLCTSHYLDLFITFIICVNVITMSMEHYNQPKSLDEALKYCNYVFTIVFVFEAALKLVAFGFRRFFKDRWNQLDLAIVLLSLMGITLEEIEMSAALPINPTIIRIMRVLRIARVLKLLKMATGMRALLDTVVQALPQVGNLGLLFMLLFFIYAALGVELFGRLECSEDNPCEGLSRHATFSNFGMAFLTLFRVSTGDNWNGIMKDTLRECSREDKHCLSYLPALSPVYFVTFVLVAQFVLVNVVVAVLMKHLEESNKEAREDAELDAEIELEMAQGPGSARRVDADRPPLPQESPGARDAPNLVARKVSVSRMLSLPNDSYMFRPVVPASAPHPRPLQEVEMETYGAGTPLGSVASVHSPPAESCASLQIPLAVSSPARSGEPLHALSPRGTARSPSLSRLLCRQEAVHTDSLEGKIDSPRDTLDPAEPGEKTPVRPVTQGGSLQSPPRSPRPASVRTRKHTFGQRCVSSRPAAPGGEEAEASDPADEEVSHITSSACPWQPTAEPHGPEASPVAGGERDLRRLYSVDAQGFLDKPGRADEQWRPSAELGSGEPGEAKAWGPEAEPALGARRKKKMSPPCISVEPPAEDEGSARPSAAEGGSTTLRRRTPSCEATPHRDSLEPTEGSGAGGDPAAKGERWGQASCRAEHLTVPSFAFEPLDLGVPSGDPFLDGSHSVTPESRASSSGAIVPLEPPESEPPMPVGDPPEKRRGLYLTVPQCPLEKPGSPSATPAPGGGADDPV
Phospholipase A2, sequence (P04054 whole entry): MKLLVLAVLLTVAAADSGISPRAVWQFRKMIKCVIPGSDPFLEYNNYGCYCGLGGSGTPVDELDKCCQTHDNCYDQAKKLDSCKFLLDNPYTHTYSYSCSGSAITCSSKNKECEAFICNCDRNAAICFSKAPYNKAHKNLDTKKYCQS
Nonstructural protein 1, sequence (Q194T2 whole entry): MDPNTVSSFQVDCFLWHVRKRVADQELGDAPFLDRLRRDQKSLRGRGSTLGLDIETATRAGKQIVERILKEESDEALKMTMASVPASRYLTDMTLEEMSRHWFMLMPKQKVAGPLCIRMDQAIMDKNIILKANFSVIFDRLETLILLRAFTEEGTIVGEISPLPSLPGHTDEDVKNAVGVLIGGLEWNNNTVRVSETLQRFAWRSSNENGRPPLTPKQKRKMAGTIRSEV

Cc1ccc(-c2nnn(CC(=O)N(c3ccccc3F)C(CC(C)C)C(=O)NCC3CCCO3)n2)cc1 (stereo not given)
EC50 [1]: 5.3 µM (active)

O=C(Nc1nc2ccccc2s1)C1CCCN1S(=O)(=O)c1ccc(Cl)cc1 (stereo not given)
EC50 [1]: 5.86 µM (active)

C=CCn1c(O)c(N=NC(S)=Nc2ccccc2C)c2cc(S(=O)(=O)N3CCOCC3)ccc21
AC50 (HEK293): 2.93 µM (active) | EC50 [2]: 2.06 µM (active) | EC50 [3]: 20.4 µM (inconclusive)

COc1cccc(C(=O)Nc2n[nH]c(SCc3ccc(Cl)cc3)n2)c1
AC50 [4]: 2.78 µM (active) | IC50 (Prothrombin): 2.94 µM (active) | EC50 (Protein RecA): 1.29 µM (active)

CCC1=NN(C(=O)c2cccc(Br)c2)C(O)(c2ccc(Br)cc2)C1 (stereo not given)
AC50 [5]: 0.634 µM (active) | IC50 (Phospholipase A2): 8.71 µM (active) | AC50 (INS1): 4.84 µM (active) | IC50 (Cysteine protease ATG4B): 12.1 µM (active)

CC(=O)c1ccc(O)c(CSC2=NCCS2)c1
IC50 (Prothrombin): > 50 µM (not active)

O=C(CCC1COc2ccccc2O1)Nc1ccc(Cl)cn1 (stereo not given)
EC50 [1]: 2.94 µM (active)

S=C(NCC1CCCCC1)Nc1ccc(Oc2ccccc2)cc1
AC50 (HEK293): 170 µM (active) | AC50 [5]: 4.58 µM (active) | EC50 [6]: > 60 µM (not active) | EC50 (Streptokinase A): 4.05 µM (active) | EC50 (Streptococcus): 24.3 µM (active) | EC50 [7]: 10.9 µM (active) | EC50 [8]: 2.05 µM (active)

O=C(Nc1nc(-c2cccs2)cs1)c1ccco1
IC50 (Prothrombin): > 50 µM (not active)

COc1ccc(C(C(O)C(=O)c2c[nH]c3ccccc23)N2CCN(c3ccccc3)CC2)cc1 (stereo not given)
EC50 [1]: 8.16 µM (active)

Clc1ccc(-c2cnnc(-c3ccccn3)n2)cc1
IC50 (Nonstructural protein 1): 14.2 µM (active)

CCCC(=O)n1nc(-c2ccc(Cl)cc2)nc1SC
IC50 (Prothrombin): 3.57 µM (active)

O=C(Nc1cc(C(F)(F)F)cc(C(F)(F)F)c1)c1ccc(Cn2cc(C(F)(F)F)ccc2=O)cc1
EC50 [1]: 5.74 µM (active)

O=[N+]([O-])c1nn(-c2ccc3c(c2)OCCO3)[n+]([O-])c1NC1CCCCCC1
IC50 (Nonstructural protein 1): 44.6 µM (active) | EC50 [6]: > 30 µM (not active) | EC50 [8]: 0.681 µM (active)

N#Cc1ccc(-c2ccc(F)cc2)nc1Sc1ccc(F)cc1
EC50 [9]: 28.7 µM (active) | EC50 [10]: 20.6 µM (active)

NC(=O)CSc1nc2cc([N+](=O)[O-])ccc2[nH]1
IC50 (Phospholipase A2): 9.62 µM (active) | IC50 (Cysteine protease ATG4B): 12.4 µM (active)

O=C1C=C(O)c2c(O)cccc2C1=O
IC50 (Prothrombin): > 50 µM (not active)

COc1ccc(CNc2nc(-c3cccnc3)nn2C(C)=O)cc1
IC50 (Prothrombin): 0.0252 µM (active)

CCOc1cc(CNc2ccc(N3CCCCC3)cc2)cc(Br)c1OCC(=O)NC(C)(C)C
EC50 [6]: > 60 µM (inconclusive) | IC50 [11]: 20.8 µM (active) | CC50 [12]: 100 µM (active) | EC50 [8]: 1.46 µM (active)

CN(C)Cc1ccc(F)cc1Sc1cc(Cl)ccc1Cl
IC50 (Phospholipase A2): 16.4 µM (active) | IC50 (Cysteine protease ATG4B): 16.9 µM (active)

COc1ccc(/C=C2\SC(=O)N(CCCC(=O)Nc3ccc(C(=O)O)cc3)C2=O)cc1
AC50 (HEK293): 2.37 µM (active)

CCCc1c(C(=O)N/N=C(\C)c2ccccn2)nnn1-c1nonc1N
AC50 (HEK293): 9.69 µM (active)

Cc1ccc(C(=O)O)cc1/N=C/c1cc(Br)cc(Br)c1O
IC50 (Phospholipase A2): 18 µM (active) | IC50 (Cysteine protease ATG4B): 9.89 µM (active)
